Test results taken from patent US20220402867A1, “SULFO-SUBSTITUTED BIARYL COMPOUND OR SALT THEREOF, PREPARATION METHOD THEREFOR, AND USE THEREOF” (Shanghai Litedd Co., Ltd., priority 2019, published 2022).
Blank lines part the entries; values can stand above or below the compound they belong to.

Tests used:
[1] = Metabolic stability in mouse liver microsomes; assay type: in vitro ADME, CD-1 mice; conditions: for half-life: CD-1; for microsomal CLint: CD-1, 0.5 mg protein/mL
Procedure, shortened: (§1)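 Compound incubated at 37 °C with 0.5 mg protein/mL liver microsomes plus cofactors in PBS, sampled at 0–60 min, quenched with cold acetonitrile and quantified by HPLC-MS/MS (n=3). Half-life and Clint (μL/min/mg) come from the slope of ln(% remaining) versus time.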

[2] = Metabolic stability in human liver microsomes; assay type: in vitro ADME; conditions: for microsomal CLint: 0.5 mg protein/mL
Procedure, shortened: as §1

GST-RORγ LBD (263-509) = target: T1, GST-RORγ LBD (263-509) (Homo sapiens, UniProt P51449); assay: TR-FRET assay of agonistic activity on RORγ receptor; assay type: biochemical; conditions: for EC50: TR-FRET, GST-RORγ LBD with Biotin-SRC1; for Emax: maximum activation rate, TOP of fitted curve
T1 construct: GST-RORγ LBD ((263-509) (produced at ChemPartner))
T1 sequence (P51449 263-509): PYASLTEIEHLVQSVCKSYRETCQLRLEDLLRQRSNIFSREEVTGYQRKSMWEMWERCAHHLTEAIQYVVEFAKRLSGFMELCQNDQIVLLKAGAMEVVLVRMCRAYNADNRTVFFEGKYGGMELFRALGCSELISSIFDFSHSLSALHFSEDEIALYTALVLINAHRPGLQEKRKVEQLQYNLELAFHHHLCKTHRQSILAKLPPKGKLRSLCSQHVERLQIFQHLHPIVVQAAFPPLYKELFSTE
Procedure, shortened: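 GST-RORγ LBD (75 nM solution) mixed 1:1 with Biotin-SRC1 (4 nM solution), then with Eu anti-GST and SA-APC; compounds in 10-point 3-fold series from 10 mM stock, duplicate.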

[3] = tested on: mouse spleen lymphocytes (Th17 cells); assay: Th17 differentiation and IL-17 secretion in mouse lymphocytes; assay type: cell-based; conditions: Lymphocyte, IL-17 ELISA after 48 hours; for Emax: maximum activation rate
Description: Test procedure: the mouse spleen lymphocytes were first isolated, and the lymphocytes were subject to the conditions of stimulating factors (anti-mCD28: 5 μg/mL; rmTGF-β1: 1 ng/mL; rmIL-6: 50 ng/mL; rmIL-23: 5 ng/mL) and differentiated to Th17, while adding different concentrations of compounds. All test compounds were serially diluted at 3-fold dilution with DMSO, with 8 serial dilutions starting from the maximum concentration 3 μM. The supernatants were collected after 48 hours for IL-17 ELISA detection, and compared with the solvent group, to determine the activation rate of the compounds on Th17 cells to secrete IL-17. EC50 values were fitted with Graphad 8.0, and the TOP values fitted by the software was Emax %.

% Remaining (T = 60 min) [1]: 68.90%
half-life [1]: 2.24 h
microsomal CLint [1]: 10.7 µL/min/mg
half-life [2]: > 2.42 h
microsomal CLint [2]: < 9.6 µL/min/mg
% Remaining (T = 60 min) [2]: 100.7%
EC50 (GST-RORγ LBD (263-509)): 16.6 nM
Emax (GST-RORγ LBD (263-509)): 187%
Compound: CCS(=O)(=O)c1ccc(C(COC)C(=O)Nc2cc(Cl)c(-c3ccc(S(=O)(=O)C4CC4)cc3)c(Cl)c2)cc1 (centres unmarked) [Example 16, N-(2,6-Dichloro-4′-(cyclopropylsulfonyl)-[1,1′-biphenyl]-4-yl)-2-(4-(ethylsulfonyl)phenyl)-3-methoxypropionamide]

EC50 [3]: 112 nM
% Remaining (T = 60 min) [1]: 22.20%
half-life [1]: 0.47 h
half-life [2]: > 2.42 h
microsomal CLint [2]: < 9.6 µL/min/mg
% Remaining (T = 60 min) [2]: 83.4%
EC50 (GST-RORγ LBD (263-509)): 9.6 nM
Emax (GST-RORγ LBD (263-509)): 220%
Compound: CCS(=O)(=O)c1ccc(-c2c(Cl)cc(NC(=O)Cc3ccc(S(C)(=O)=O)cc3)cc2Cl)cc1 [Example 4, N-(2,6-Dichloro-4′-(ethylsulfonyl)-[1,1′-biphenyl]-4-yl)-2-(4-(methylsulfonyl)phenyl)acetamide]
Emax [3]: 156%

EC50 [3]: 318 nM
% Remaining (T = 60 min) [1]: 97.10%
half-life [1]: > 2.42 h
microsomal CLint [1]: < 9.6 µL/min/mg
half-life [2]: > 2.42 h
microsomal CLint [2]: < 9.6 µL/min/mg
% Remaining (T = 60 min) [2]: 110.5%
EC50 (GST-RORγ LBD (263-509)): 6.8 nM
Emax (GST-RORγ LBD (263-509)): 167%
Compound: CS(=O)(=O)c1ccc(CC(=O)Nc2cc(Cl)c(-c3ccc(S(=O)(=O)C4CC4)cc3)c(Cl)c2)cc1 [Example 11, N-(2,6-Dichloro-4′-(cyclopropylsulfonyl)-[1,1′-biphenyl]-4-yl)-2-(4-(methylsulfonyl)phenyl)acetamide]
Emax [3]: 123%

% Remaining (T = 60 min) [1]: 64.4%
half-life [1]: 1.56 h
microsomal CLint [1]: 14.8 µL/min/mg
half-life [2]: 1.68 h
microsomal CLint [2]: 13.8 µL/min/mg
% Remaining (T = 60 min) [2]: 69%
EC50 (GST-RORγ LBD (263-509)): 6.2 nM
Emax (GST-RORγ LBD (263-509)): 194%
Compound: COCC(C(=O)Nc1ccc(-c2ccc(S(=O)(=O)C3CC3)cc2)c(C(F)(F)F)c1)c1ccc(S(C)(=O)=O)cc1 (single isomer, unassigned) [Example 43, (S)—N-(4′-(cyclopropylsulfonyl)-2-(trifluoromethyl)-[1,1′-biphenyl]-4-yl)-3-methoxy-2-(4-(methylsulfonyl)phenyl)propionamide or (R)—N-(4′-(cyclopropylsulfonyl)-2-(trifluoromethyl)-[1,1′-biphenyl]-4-yl)-3-methoxy-2-(4-(methylsulfonyl)phenyl)propanamide]

EC50 [3]: 943 nM
% Remaining (T = 60 min) [1]: 64.20%
half-life [1]: 1.64 h
half-life [2]: > 2.42 h
microsomal CLint [2]: < 9.6 µL/min/mg
% Remaining (T = 60 min) [2]: 102.5%
EC50 (GST-RORγ LBD (263-509)): 22.2 nM
Emax (GST-RORγ LBD (263-509)): 160%
Compound: CCS(=O)(=O)c1ccc(-c2c(Cl)cc(NC(=O)Cc3ccc(S(C)(=O)=O)cn3)cc2Cl)cc1 [Example 9, N-(2,6-Dichloro-4′-(ethylsulfonyl)-[1,1′-biphenyl]-4-yl)-2-(5-(methylsulfonyl)pyridin-2-yl)acetamide]
Emax [3]: 65.4%

EC50 [3]: 370 nM
% Remaining (T = 60 min) [1]: 107.80%
half-life [1]: > 2.42 h
microsomal CLint [1]: < 9.6 µL/min/mg
half-life [2]: > 2.42 h
microsomal CLint [2]: < 9.6 µL/min/mg
% Remaining (T = 60 min) [2]: 95.6%
EC50 (GST-RORγ LBD (263-509)): 10.1 nM
Emax (GST-RORγ LBD (263-509)): 170%
Compound: CCS(=O)(=O)c1ccc(CC(=O)Nc2cc(Cl)c(-c3ccc(S(C)(=O)=O)cc3)c(Cl)c2)nc1 [Example 8, N-(2,6-Dichloro-4′-(methylsulfonyl)-[1,1′-biphenyl]-4-yl)-2-(5-(ethylsulfonyl)pyridin-2-yl)acetamide]
Emax [3]: 85%

The remaining lines, values behind:

Compound: CCS(=O)(=O)c1ccc(-c2c(Cl)cc(NC(=O)Cc3ccc(S(=O)(=O)CC)cn3)cc2Cl)cc1 [Example 5, N-(2,6-Dichloro-4′-(ethylsulfonyl)-[1,1′-biphenyl]-4-yl)-2-(5-(ethylsulfonyl)pyridin-2-yl)acetamide]
EC50 [3]: 11.4 nM
Emax [3]: 147%
% Remaining (T = 60 min) [1]: 35.50%
half-life [1]: 0.707 h
half-life [2]: > 2.42 h
microsomal CLint [2]: < 9.6 µL/min/mg
% Remaining (T = 60 min) [2]: 76.7%
EC50 (GST-RORγ LBD (263-509)): 8.5 nM
Emax (GST-RORγ LBD (263-509)): 222%

Compound: CCS(=O)(=O)c1ccc(-c2c(Cl)cc(NC(=O)C(COC)c3ccc(S(=O)(=O)CC)cc3)cc2Cl)cc1 (centres unmarked) [Example 13, N-(2,6-Dichloro-4′-(ethylsulfonyl)-[1,1′-biphenyl]-4-yl)-2-(4-(ethylsulfonyl)phenyl)-3-methoxypropionamide]
EC50 [3]: 5.7 nM
Emax [3]: 134%
% Remaining (T = 60 min) [1]: 28%
half-life [1]: 0.543 h
half-life [2]: 2.07 h
% Remaining (T = 60 min) [2]: 71.4%
EC50 (GST-RORγ LBD (263-509)): 12.1 nM
Emax (GST-RORγ LBD (263-509)): 171%

Compound: COCC(C(=O)Nc1cc(Cl)c(-c2ccc(S(=O)(=O)C3CC3)cc2)c(Cl)c1)c1ccc(S(C)(=O)=O)cc1 (centres unmarked) [Example 20, N-(2,6-Dichloro-4′-(cyclopropylsulfonyl)-[1,1′-biphenyl]-4-yl)-3-methoxy-2-(4-(methylsulfonyl)phenyl)propionamide]
% Remaining (T = 60 min) [1]: 75.50%
half-life [1]: 2.21 h
microsomal CLint [1]: 10.5 µL/min/mg
half-life [2]: 1.34 h
microsomal CLint [2]: 17.3 µL/min/mg
% Remaining (T = 60 min) [2]: 53.9%
EC50 (GST-RORγ LBD (263-509)): 19.5 nM
Emax (GST-RORγ LBD (263-509)): 192%

Compound: CCS(=O)(=O)c1ccc(CC(=O)Nc2cc(Cl)c(-c3ccc(S(C)(=O)=O)cc3)c(Cl)c2)cc1 [Example 2, N-(2,6-dichloro-4′-(methylsulfonyl)-[1,1′-biphenyl]-4-yl)-2-(4-(ethylsulfonyl)phenyl)acetamide]
EC50 [3]: 114 nM
Emax [3]: 203%
% Remaining (T = 60 min) [1]: 89.30%
half-life [1]: > 2.42 h
microsomal CLint [1]: < 9.6 µL/min/mg
half-life [2]: > 2.42 h
microsomal CLint [2]: < 9.6 µL/min/mg
% Remaining (T = 60 min) [2]: 75.7%
EC50 (GST-RORγ LBD (263-509)): 9.1 nM
Emax (GST-RORγ LBD (263-509)): 210%
